# Assay results: the kinase profiling compilation of Christmann-Franck et al. (2016)
# Legend:
# Assay in all cases: radiometric filter-binding kinase assay, Kinaseprofiler
# CAMK1D (human) = CAMK1D (human) (UniProt Q8IU85); settings: ATP 15 µM
# CAMK2D (human) = CAMK2D (human) (UniProt Q13557); settings: ATP 10 µM
# PAK6 (human) = PAK6 (human) (UniProt Q9NQU5); settings: ATP 10 µM
# CDK5 CDK5R1 p35 (human) = CDK5 CDK5R1 p35 (human) (UniProt Q00535+Q15078); settings: ATP 15 µM
# YES1 (human) = YES1 (human) (UniProt P07947); settings: ATP 45 µM
# BRSK1 (human) = BRSK1 (human) (UniProt Q8TDC3); settings: ATP 200 µM
# DAPK1 (human) = DAPK1 (human) (UniProt P53355); settings: ATP 70 µM
# DAPK2 (human) = DAPK2 (human) (UniProt Q9UIK4); settings: ATP 10 µM
# CHEK2 (human) = CHEK2 (human) (UniProt O96017); settings: ATP 70 µM
# PRKCZ (human) = PRKCZ (human) (UniProt Q05513); settings: ATP 15 µM
# [1] = tested on: BRSK2 (human), Q8IWQ3 [S251I]; settings: ATP 70 µM
# Chain of BRSK2 (human), Q8IWQ3 [S251I] (Q8IWQ3 whole entry, looked up, stated change not applied): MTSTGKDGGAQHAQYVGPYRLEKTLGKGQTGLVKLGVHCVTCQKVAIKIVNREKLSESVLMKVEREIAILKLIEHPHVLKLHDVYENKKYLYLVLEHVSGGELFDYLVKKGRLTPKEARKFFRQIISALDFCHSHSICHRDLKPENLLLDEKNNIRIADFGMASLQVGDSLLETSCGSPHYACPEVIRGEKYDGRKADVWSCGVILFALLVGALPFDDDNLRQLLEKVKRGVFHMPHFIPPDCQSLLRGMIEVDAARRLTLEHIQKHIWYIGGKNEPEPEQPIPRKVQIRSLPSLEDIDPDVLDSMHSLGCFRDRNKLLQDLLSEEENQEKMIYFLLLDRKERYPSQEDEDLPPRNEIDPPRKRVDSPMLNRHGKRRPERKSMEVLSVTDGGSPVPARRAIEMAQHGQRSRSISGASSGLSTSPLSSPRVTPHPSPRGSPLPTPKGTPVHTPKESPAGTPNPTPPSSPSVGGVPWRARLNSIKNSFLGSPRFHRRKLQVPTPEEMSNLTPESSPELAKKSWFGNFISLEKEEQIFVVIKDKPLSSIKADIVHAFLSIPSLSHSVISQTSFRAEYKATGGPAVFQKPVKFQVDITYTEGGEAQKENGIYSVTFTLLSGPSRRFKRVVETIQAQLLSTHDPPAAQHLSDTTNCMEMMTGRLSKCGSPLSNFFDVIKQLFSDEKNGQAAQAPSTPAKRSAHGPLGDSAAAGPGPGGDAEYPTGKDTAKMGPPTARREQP
# PLK2 (human) = PLK2 (human) (UniProt Q9NYY3); settings: ATP 120 µM
# MAPK8 (human) = MAPK8 (human) (UniProt P45983); settings: ATP 45 µM
# FRK (human) = FRK (human) (UniProt P42685); settings: ATP 155 µM
# RPS6KA5 KD1 KD2 (human) = RPS6KA5 KD1 KD2 (human) (UniProt O75582); settings: ATP 90 µM
# Chain of RPS6KA5 KD1 KD2 (human) (O75582 whole entry, looked up): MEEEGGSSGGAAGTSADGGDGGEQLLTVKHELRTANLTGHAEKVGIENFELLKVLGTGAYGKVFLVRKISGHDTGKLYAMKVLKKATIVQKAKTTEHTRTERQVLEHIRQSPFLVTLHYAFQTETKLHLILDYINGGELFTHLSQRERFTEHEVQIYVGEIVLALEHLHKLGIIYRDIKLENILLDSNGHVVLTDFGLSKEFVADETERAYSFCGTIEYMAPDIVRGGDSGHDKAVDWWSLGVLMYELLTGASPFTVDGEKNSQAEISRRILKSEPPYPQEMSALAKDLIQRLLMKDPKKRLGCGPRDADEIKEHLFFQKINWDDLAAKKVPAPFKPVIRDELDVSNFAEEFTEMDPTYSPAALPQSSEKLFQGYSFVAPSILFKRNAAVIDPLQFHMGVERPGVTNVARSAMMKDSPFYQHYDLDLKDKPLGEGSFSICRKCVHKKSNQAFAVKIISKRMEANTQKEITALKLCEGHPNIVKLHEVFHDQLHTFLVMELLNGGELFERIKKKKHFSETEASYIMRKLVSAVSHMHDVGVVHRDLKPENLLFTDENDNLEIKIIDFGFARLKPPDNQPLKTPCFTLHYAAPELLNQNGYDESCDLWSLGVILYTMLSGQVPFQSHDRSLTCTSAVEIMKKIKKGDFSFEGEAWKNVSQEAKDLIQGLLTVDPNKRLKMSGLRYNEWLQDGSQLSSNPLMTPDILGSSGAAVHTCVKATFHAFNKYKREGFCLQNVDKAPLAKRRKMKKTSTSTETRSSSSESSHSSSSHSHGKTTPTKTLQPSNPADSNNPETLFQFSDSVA
# FER (human) = FER (human) (UniProt P16591); settings: ATP 70 µM
# Chain of FER (human) (P16591 whole entry, looked up): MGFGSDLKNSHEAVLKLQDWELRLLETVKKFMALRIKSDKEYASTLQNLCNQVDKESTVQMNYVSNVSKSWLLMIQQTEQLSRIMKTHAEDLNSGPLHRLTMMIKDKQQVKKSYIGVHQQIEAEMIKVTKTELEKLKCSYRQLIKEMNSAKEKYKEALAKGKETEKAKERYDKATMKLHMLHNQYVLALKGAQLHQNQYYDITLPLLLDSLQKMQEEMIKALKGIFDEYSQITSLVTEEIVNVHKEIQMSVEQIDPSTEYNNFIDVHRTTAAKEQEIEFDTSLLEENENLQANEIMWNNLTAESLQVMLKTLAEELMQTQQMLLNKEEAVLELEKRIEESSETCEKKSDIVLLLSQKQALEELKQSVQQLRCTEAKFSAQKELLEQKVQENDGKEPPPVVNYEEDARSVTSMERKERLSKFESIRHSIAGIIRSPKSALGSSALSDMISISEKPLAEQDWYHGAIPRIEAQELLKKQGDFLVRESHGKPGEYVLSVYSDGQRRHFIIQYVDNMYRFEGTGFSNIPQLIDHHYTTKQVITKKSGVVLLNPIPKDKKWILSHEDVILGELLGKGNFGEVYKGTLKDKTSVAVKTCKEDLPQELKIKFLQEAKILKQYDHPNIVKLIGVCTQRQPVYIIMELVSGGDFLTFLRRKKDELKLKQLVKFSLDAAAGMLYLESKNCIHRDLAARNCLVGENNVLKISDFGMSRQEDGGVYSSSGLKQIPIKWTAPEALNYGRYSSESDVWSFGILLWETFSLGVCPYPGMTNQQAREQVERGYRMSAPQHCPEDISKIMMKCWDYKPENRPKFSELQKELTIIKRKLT
# CDK6 CCND3 (human) = CDK6 CCND3 (human) (UniProt P30281+Q00534); settings: ATP 200 µM
# CDK2 CCNE1 (human) = CDK2 CCNE1 (human) (UniProt P24941+P24864); settings: ATP 120 µM
# LIMK1 (human) = LIMK1 (human) (UniProt P53667); settings: ATP 15 µM
# TNK2 (human) = TNK2 (human) (UniProt Q07912); settings: ATP 70 µM
# Chain of TNK2 (human) (Q07912 whole entry, looked up): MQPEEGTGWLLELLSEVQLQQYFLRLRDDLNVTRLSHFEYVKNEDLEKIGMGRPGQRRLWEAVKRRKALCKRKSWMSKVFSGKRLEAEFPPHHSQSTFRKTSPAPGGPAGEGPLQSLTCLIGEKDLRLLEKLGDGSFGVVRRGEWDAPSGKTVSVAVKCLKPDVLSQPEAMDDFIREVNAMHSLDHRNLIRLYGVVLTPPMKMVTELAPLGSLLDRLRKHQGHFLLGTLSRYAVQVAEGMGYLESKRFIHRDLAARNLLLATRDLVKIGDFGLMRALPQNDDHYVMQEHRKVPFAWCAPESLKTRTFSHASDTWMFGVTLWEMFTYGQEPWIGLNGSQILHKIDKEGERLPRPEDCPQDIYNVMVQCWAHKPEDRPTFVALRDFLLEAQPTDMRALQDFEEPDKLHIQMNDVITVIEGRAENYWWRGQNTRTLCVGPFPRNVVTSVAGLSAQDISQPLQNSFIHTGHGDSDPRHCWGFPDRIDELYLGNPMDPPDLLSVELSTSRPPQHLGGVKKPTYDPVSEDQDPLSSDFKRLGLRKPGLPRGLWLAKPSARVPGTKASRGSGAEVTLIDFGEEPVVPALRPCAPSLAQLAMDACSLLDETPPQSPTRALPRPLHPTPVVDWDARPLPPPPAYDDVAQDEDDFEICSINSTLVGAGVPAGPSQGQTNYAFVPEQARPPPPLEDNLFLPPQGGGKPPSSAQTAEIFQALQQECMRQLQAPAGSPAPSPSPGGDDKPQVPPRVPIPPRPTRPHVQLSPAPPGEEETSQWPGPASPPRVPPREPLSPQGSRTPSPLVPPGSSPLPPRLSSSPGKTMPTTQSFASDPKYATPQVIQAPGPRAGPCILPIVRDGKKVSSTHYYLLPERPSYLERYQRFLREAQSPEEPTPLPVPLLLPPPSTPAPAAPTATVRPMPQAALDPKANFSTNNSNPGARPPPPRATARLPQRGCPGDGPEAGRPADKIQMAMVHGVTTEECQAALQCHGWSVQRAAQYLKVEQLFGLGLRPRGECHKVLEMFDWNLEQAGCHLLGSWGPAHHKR
# PKN2 (human) = PKN2 (human) (UniProt Q16513); settings: ATP 15 µM
# VRK2 (human) = VRK2 (human) (UniProt Q86Y07); settings: ATP 70 µM
# AURKB (human) = AURKB (human) (UniProt Q96GD4); settings: ATP 10 µM
# FGFR1 (human) = FGFR1 (human) (UniProt P11362); settings: ATP 200 µM
# ABL2 (human) = ABL2 (human) (UniProt P42684); settings: ATP 45 µM
# CSNK1G2 (human) = CSNK1G2 (human) (UniProt P78368); settings: ATP 10 µM
# GSG2 (human) = GSG2 (human) (UniProt Q8TF76); settings: ATP 70 µM
# Chain of GSG2 (human) (Q8TF76 whole entry, looked up): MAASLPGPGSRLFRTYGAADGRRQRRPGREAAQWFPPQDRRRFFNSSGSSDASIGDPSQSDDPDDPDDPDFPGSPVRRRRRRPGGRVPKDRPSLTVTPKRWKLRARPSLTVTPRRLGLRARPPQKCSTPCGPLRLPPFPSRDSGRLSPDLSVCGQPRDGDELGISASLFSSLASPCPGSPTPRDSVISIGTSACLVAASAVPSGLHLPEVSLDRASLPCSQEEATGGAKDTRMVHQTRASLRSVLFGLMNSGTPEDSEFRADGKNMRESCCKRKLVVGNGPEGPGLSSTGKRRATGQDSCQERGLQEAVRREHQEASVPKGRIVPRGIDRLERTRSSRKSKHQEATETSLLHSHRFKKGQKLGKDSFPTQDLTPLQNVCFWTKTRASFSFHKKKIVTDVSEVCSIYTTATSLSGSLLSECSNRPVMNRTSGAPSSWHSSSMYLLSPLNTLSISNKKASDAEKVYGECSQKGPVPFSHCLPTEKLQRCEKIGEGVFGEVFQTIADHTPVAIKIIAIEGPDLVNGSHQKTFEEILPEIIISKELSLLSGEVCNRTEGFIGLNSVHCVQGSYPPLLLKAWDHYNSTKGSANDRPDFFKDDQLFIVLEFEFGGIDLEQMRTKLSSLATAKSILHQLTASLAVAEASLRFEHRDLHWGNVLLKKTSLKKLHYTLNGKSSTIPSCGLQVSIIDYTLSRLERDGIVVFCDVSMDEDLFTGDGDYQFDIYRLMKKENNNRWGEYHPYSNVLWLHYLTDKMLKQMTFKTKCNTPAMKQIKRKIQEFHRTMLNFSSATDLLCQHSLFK
# FLT3 (human) = FLT3 (human) (UniProt P36888); settings: ATP 200 µM
# ITK (human) = ITK (human) (UniProt Q08881); settings: ATP 200 µM
# Chain of ITK (human) (Q08881 whole entry, looked up): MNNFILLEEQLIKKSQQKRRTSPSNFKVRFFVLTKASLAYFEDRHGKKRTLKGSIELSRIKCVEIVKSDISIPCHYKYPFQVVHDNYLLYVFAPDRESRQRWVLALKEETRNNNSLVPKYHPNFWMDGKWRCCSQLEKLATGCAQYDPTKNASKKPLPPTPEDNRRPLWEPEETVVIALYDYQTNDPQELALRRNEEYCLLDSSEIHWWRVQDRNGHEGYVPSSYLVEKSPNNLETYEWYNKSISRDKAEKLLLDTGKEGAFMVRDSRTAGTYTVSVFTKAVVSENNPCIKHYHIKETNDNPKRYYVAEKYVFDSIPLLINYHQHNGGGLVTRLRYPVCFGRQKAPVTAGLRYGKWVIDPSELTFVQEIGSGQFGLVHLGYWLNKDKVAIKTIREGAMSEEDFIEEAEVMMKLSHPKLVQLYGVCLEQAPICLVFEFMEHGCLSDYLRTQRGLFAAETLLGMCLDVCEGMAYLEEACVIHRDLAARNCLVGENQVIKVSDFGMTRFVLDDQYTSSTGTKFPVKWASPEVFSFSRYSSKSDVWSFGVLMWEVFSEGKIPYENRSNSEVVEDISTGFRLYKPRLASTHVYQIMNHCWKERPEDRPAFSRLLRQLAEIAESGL
# CDK1 CCNB1 (human) = CDK1 CCNB1 (human) (UniProt P06493+P14635); settings: ATP 45 µM
# MAPK11 (human) = MAPK11 (human) (UniProt Q15759); settings: ATP 45 µM
# PIM1 (human) = PIM1 (human) (UniProt P11309); settings: ATP 90 µM
smiles,measurement,setting,value
O=C1Nc2ccccc2/C1=C1\Nc2ccccc2\C1=N/O,residual activity,CAMK1D (human); compound 1.0 µM,71%
same,residual activity,CAMK1D (human); compound 10.0 µM,56%
same,residual activity,CAMK2D (human); compound 1.0 µM,10%
same,residual activity,CAMK2D (human); compound 10.0 µM,2%
same,residual activity,PAK6 (human); compound 1.0 µM,63%
same,residual activity,PAK6 (human); compound 10.0 µM,37%
same,residual activity,CDK5 CDK5R1 p35 (human); compound 1.0 µM,5%
same,residual activity,CDK5 CDK5R1 p35 (human); compound 10.0 µM,1%
same,residual activity,YES1 (human); compound 1.0 µM,17%
same,residual activity,YES1 (human); compound 10.0 µM,0%
same,residual activity,BRSK1 (human); compound 1.0 µM,13%
same,residual activity,BRSK1 (human); compound 10.0 µM,12%
same,residual activity,DAPK1 (human); compound 1.0 µM,91%
same,residual activity,DAPK1 (human); compound 10.0 µM,67%
same,residual activity,DAPK2 (human); compound 1.0 µM,73%
same,residual activity,DAPK2 (human); compound 10.0 µM,23%
same,residual activity,CHEK2 (human); compound 1.0 µM,13%
same,residual activity,CHEK2 (human); compound 10.0 µM,2%
same,residual activity,PRKCZ (human); compound 1.0 µM,101%
same,residual activity,PRKCZ (human); compound 10.0 µM,98%
same,residual activity,[1]; compound 1.0 µM,10%
same,residual activity,[1]; compound 10.0 µM,5%
same,residual activity,PLK2 (human); compound 1.0 µM,97%
same,residual activity,PLK2 (human); compound 10.0 µM,82%
same,residual activity,MAPK8 (human); compound 1.0 µM,63%
same,residual activity,MAPK8 (human); compound 10.0 µM,70%
same,residual activity,FRK (human); compound 1.0 µM,13%
same,residual activity,FRK (human); compound 10.0 µM,6%
same,residual activity,RPS6KA5 KD1 KD2 (human); compound 1.0 µM,61%
same,residual activity,RPS6KA5 KD1 KD2 (human); compound 10.0 µM,21%
same,residual activity,FER (human); compound 1.0 µM,70%
same,residual activity,FER (human); compound 10.0 µM,53%
same,residual activity,CDK6 CCND3 (human); compound 1.0 µM,16%
same,residual activity,CDK6 CCND3 (human); compound 10.0 µM,5%
same,residual activity,CDK2 CCNE1 (human); compound 1.0 µM,6%
same,residual activity,CDK2 CCNE1 (human); compound 10.0 µM,-1%
same,residual activity,LIMK1 (human); compound 1.0 µM,61%
same,residual activity,LIMK1 (human); compound 10.0 µM,21%
same,residual activity,TNK2 (human); compound 1.0 µM,34%
same,residual activity,TNK2 (human); compound 10.0 µM,4%
same,residual activity,PKN2 (human); compound 1.0 µM,91%
same,residual activity,PKN2 (human); compound 10.0 µM,48%
same,residual activity,VRK2 (human); compound 1.0 µM,71%
same,residual activity,VRK2 (human); compound 10.0 µM,28%
same,residual activity,AURKB (human); compound 1.0 µM,1%
same,residual activity,AURKB (human); compound 10.0 µM,-2%
same,residual activity,FGFR1 (human); compound 1.0 µM,3%
same,residual activity,FGFR1 (human); compound 10.0 µM,-1%
same,residual activity,ABL2 (human); compound 1.0 µM,30%
same,residual activity,ABL2 (human); compound 10.0 µM,28%
same,residual activity,CSNK1G2 (human); compound 1.0 µM,64%
same,residual activity,CSNK1G2 (human); compound 10.0 µM,20%
same,residual activity,GSG2 (human); compound 1.0 µM,26%
same,residual activity,GSG2 (human); compound 10.0 µM,19%
same,residual activity,FLT3 (human); compound 1.0 µM,1%
same,residual activity,FLT3 (human); compound 10.0 µM,0%
same,residual activity,ITK (human); compound 1.0 µM,19%
same,residual activity,ITK (human); compound 10.0 µM,1%
same,residual activity,CDK1 CCNB1 (human); compound 1.0 µM,35%
same,residual activity,CDK1 CCNB1 (human); compound 10.0 µM,19%
same,residual activity,MAPK11 (human); compound 1.0 µM,101%
same,residual activity,MAPK11 (human); compound 10.0 µM,90%
same,residual activity,PIM1 (human); compound 1.0 µM,76%
same,residual activity,PIM1 (human); compound 10.0 µM,47%
